In US20130150317A1, “COMPOUNDS FOR THE TREATMENT OF RENAL CELL CARCINOMA” (Myrovlytis Technology Ventures Limited, priority 2010, published 2013):

Tested on: UOK cells with/without FLCN expression
Assay: Effect of low-concentration rapamycin on cell proliferation (preliminary data)
Details: 1 nmol/L rapamycin; data not shown

Compound: CO[C@H]1C[C@@H]2CC[C@@H](C)[C@@](O)(O2)C(=O)C(=O)N2CCCC[C@H]2C(=O)O[C@H]([C@H](C)C[C@@H]2CC[C@@H](O)[C@H](OC)C2)CC(=O)[C@H](C)/C=C(\C)[C@@H](O)[C@@H](OC)C(=O)[C@H](C)C[C@H](C)/C=C/C=C/C=C/1C [rapamycin]
- reduction on cell proliferation: 10%-15
